# Measured values taken from patent US20100119458A1, “Compositions Containing Metal Oxide Particles and Their Use” (Spago Imaging AB, priority 2007, published 2010).
# Assay: MRI measurements of relaxation rates and relaxivities
# Format: physicochemical
# Description: where ρ=spin density, TE=echo time and TR=repetition time. Contrast agents that are paramagnetic are used to improve the resolution in the images. They have effects on both T1 and T2 but some agents have predominant effects on either T1 or T2. […] Gadolinium (III+) has a predominant effect on T1 and therefore has been used a positive contrast agent (increased MR signal). Iron (III+) has a predominant effect on T2 and has therefore been used as a negative contrast agent (decreased MR signal). The relaxation rate (1/Ti, i=1,2 for hydrogen) observed is proportional to the concentration C of a contrast agent used, i.e.
# 1/Ti(observed)=1/Ti(inherent)+riC
# where 1/Ti (observed) is the relaxation rate in the presence of the contrast agent, 1/Ti (inherent) is the inherent tissue relaxation rate, and the proportionality constant ri is called the relaxivity constant for the contrast agent concerned. See Engström et al (Magn Reson Mater Phy 19 (2006) 180-186 and WO 2006031190 (Uvdal et al) and references cited therein.
# 15 MRI measurements: See Engström et al., Magn Reson Mater Phy, 19 (2006) 180-186.
smiles,measurement,setting,value
O=C([O-])CN(CCN(CC(=O)[O-])CC(=O)O)CCN(CC(=O)[O-])CC(=O)O.[Gd+3] [Gd^3+-DTPA],1/T1 (1 mM),relaxation rate at 1 mM,0.005 ms^−1
same,1/T2,"relaxation rate, stated in words",lower values
